# Measured values published in patent US12312334B2, “Quinoxaline compounds and uses thereof” (BOARD OF REGENTS OF THE UNIVERSITY OF NEBRASKA, priority 2017, dated 2025).
# Like-named read-outs stand apart in the source and are kept apart here.
# Columns and labels:
# [1] = system: TNFα induced NFκB transcription activity; assay: cell-based TNFα induced IKKβ mediated NFκB activation luciferase reporter assay; design: TNFα induced NFκB transcription activity % Inhibition: concentration or dose not given beside the values
# Description: Compound 13-197 has a structure:
# [2] = system: HCT116; assay: growth inhibition assay, colon cancer cell line HCT116; format: cell-based; settings: Homo sapiens, HCT-116
# [3] = system: HCT116 cancer cells; assay: HCT116 colon tumor xenograft growth inhibition study; format: in vivo; settings: HCT116 xenograft in athymic mice, 40 mg/kg for 2 weeks, preliminary results
# Description: Colon tumor xenografts were established in immune deficient (athymic: 4-6 weeks old) mice. Briefly, exponentially growing (70-80% confluent) HCT116 cancer cells were trypsinized, counted using a hemocytometer and stained with trypan blue to ensure only healthy cells are counted. Cells in suspension were added to matrigel and 4×10^6 cells/100 μl of volume were injected into the flanks of mice. Post-injection, mice were monitored on a daily basis to determine tumor growth. The tumor onset and progression was examined through palpation. Tumor diameter was measured using digital calipers and the tumor volume (in mm^3) was calculated using the formula=(width)^2×length/2. Mice were randomly separated into two groups and were dosed with either vehicle or 40 mg/kg of 39-100 for 2 weeks.
# [4] = oral and intravenous dose pharmacokinetics in mice; format: in vivo, Balb/c mice; settings: for MRT inf: read-out: MRT 0-∞
# Description: (§1) A metabolic stability profile, as well as oral and intravenous dose pharmacokinetics in mice was characterized. The in-vitro metabolic stability of 39-100 was determined using human liver S9 fraction (XenoTech, LLC, USA). 7-hydroxycoumarin (glucuronidation and sulphation) and testosterone (CYP hydroxylation) were used as positive controls for in-vitro metabolic stability study. The oral and intravenous dose pharmacokinetic studies were performed in Balb/c mice. The oral dose of 39-100 was 10 mg/kg, and the intravenous dose was 1 mg/kg. Sample analysis was performed by liquid chromatography-tandem mass spectrometry (SCIEX QTRAP 4000 LC-MS/MS System). For metabolite identification, samples were acquired by MRM-information dependent acquisition-enhanced product ion (MRM-IDA-EPI) scans, enhanced mass spectrometry-IDA-EPI scans, neutral loss, and precursor ion scan methods. Metabolites of 39-100 were characterized by Analyst 1.6.2, LightSight 2.3.1, and ChemDraw Professional-15 software.
# [5] = system: Suit2; assay: growth inhibition assay, pancreatic cancer cell line Suit2; format: cell-based; settings: SUIT-2
# [6] = system: S2013; assay: growth inhibition assay, pancreatic cancer cell line S2013; format: cell-based
# [7] = system: MiaPaCa2; assay: growth inhibition assay, pancreatic cancer cell line MiaPaCa2; format: cell-based; settings: Homo sapiens, MIA PaCa-2
# [8] = in-vitro metabolic stability in human liver S9 fraction; format: in vitro ADME; settings: for microsomal CLint / half-life: human liver S-9 fraction; for microsomal CLint: read-out: intrinsic clearance
# Description: as §1
# [9] = system: AsPC1; assay: growth inhibition assay, pancreatic cancer cell line AsPC1; format: cell-based; settings: Homo sapiens
# [10] = system: SW620; assay: growth inhibition assay, colon cancer cell line SW620; format: cell-based; settings: Homo sapiens, SW-620
# [11] = system: DLD1; assay: growth inhibition assay, colon cancer cell line DLD1; format: cell-based; settings: Homo sapiens, DLD-1
# [12] = system: HT29; assay: growth inhibition assay, colon cancer cell line HT29; format: cell-based; settings: Homo sapiens, HT-29
# [13] = Balb/c, mouse, plasma, Oral: 10 mg/kg
smiles,measurement,setting,value
Cn1cc(-c2cnc3ccc(NC(=O)Nc4ccc5sccc5c4)cc3n2)cn1 [42-077],TNFα induced NFκB transcription activity % Inhibition,[1],inactive
COc1cc(NC(=O)Nc2ccc3ncc(-c4cnn(C)c4)nc3c2)ccc1F [42-078],TNFα induced NFκB transcription activity % Inhibition,[1],33.5 ± 3.7%
Cn1cc(-c2cnc3cc(NC(=O)Nc4ccc(Br)cc4)ccc3n2)cn1 [39-061],TNFα induced NFκB transcription activity % Inhibition,[1],40.7 ± 2.9%
COc1cccc(NC(=O)Nc2ccc3ncc(-c4cnn(C)c4)nc3c2)c1 [42-076],TNFα induced NFκB transcription activity % Inhibition,[1],49.7 ± 2.6%
Cn1cc(-c2cnc3ccc(NC(=O)Nc4ccc(F)c(OC(F)(F)F)c4)cc3n2)cn1 [42-096],TNFα induced NFκB transcription activity % Inhibition,[1],64.6 ± 3.3%
Cn1cc(-c2cnc3ccc(NC(=O)Nc4ccccc4Br)cc3n2)cn1 [39-102],TNFα induced NFκB transcription activity % Inhibition,[1],62.4 ± 1.2%
Cc1nn(C)cc1-c1cnc2ccc(NC(=O)Nc3ccc(Br)cc3)cc2n1 [39-077],TNFα induced NFκB transcription activity % Inhibition,[1],37.7 ± 5.1%
Cn1cc(-c2cnc3ccc(NC(=O)Nc4ccc([N+](=O)[O-])cc4)cc3n2)cn1 [39-084],TNFα induced NFκB transcription activity % Inhibition,[1],36.4 ± 6.3%
Cn1cc(-c2cnc3ccc(NC(=O)Nc4ccc5c(c4)OCO5)cc3n2)cn1 [42-072],TNFα induced NFκB transcription activity % Inhibition,[1],inactive
Cc1cccc(NC(=O)Nc2ccc3ncc(-c4cnn(C)c4)nc3c2)c1 [42-066],TNFα induced NFκB transcription activity % Inhibition,[1],Inactive
Cn1cc(-c2cnc3ccc(NC(=O)Nc4ccc(Br)cc4)cc3n2)cn1 [39-055],TNFα induced NFκB transcription activity % Inhibition,[1],71.0 ± 4.8%
Cn1cc(-c2cnc3ccc(NC(=O)Nc4cccc(OC(F)(F)F)c4)cc3n2)cn1 [42-81B],TNFα induced NFκB transcription activity % Inhibition,[1],60.9 ± 2.9%
Cn1cc(-c2cnc3ccc(NC(=O)Nc4ccc5c(c4)OCCO5)cc3n2)cn1 [42-073],TNFα induced NFκB transcription activity % Inhibition,[1],inactive
Cn1cc(-c2cnc3ccc(NC(=O)Nc4cccc(Br)c4)cc3n2)cn1 [39-086],TNFα induced NFκB transcription activity % Inhibition,[1],88.9 ± 1.8%
Cn1ccc(-c2cnc3ccc(NC(=O)Nc4ccc(Br)cc4)cc3n2)n1 [39-062],TNFα induced NFκB transcription activity % Inhibition,[1],33.0 ± 5.7%
Cn1cc(-c2cnc3ccc(NC(=O)Nc4ccc(F)c(Cl)c4)cc3n2)cn1 [42-065],TNFα induced NFκB transcription activity % Inhibition,[1],85.3 ± 2.8%
Cn1cc(-c2cnc3ccc(NC(=O)Nc4cccc(C(F)(F)F)c4)cc3n2)cn1 [42-071],TNFα induced NFκB transcription activity % Inhibition,[1],80.5 ± 2.5%
Cn1cc(-c2cnc3ccc(NC(=O)Nc4ccc5c(c4)CCO5)cc3n2)cn1 [42-097],TNFα induced NFκB transcription activity % Inhibition,[1],inactive
Cc1ccc(NC(=O)Nc2ccc3ncc(-c4cnn(C)c4)nc3c2)cc1 [39-085],TNFα induced NFκB transcription activity % Inhibition,[1],53.0 ± 2.9%
Cn1cc(-c2cnc3ccc(NC(=O)Nc4ccc5c(c4)CCC5)cc3n2)cn1 [42-091],TNFα induced NFκB transcription activity % Inhibition,[1],inactive
Cn1cc(-c2cnc3ccc(NC(=O)Nc4cccc(Cl)c4)cc3n2)cn1 [42-064],TNFα induced NFκB transcription activity % Inhibition,[1],96.3 ± 1.5%
Cn1cc(-c2cnc3ccc(NC(=O)Nc4ccc(F)c(C(F)(F)F)c4)cc3n2)cn1 [42-062],TNFα induced NFκB transcription activity % Inhibition,[1],83.7 ± 0.3%
Cn1ccc(-c2cnc3cc(NC(=O)Nc4ccc(Br)cc4)ccc3n2)n1 [39-072],TNFα induced NFκB transcription activity % Inhibition,[1],46.8 ± 4.4%
Cc1cc(NC(=O)Nc2ccc3ncc(-c4cnn(C)c4)nc3c2)ccc1F [42-074],TNFα induced NFκB transcription activity % Inhibition,[1],10.4 ± 3.9%
O=C(Nc1ccc(Br)cc1)Nc1ccc2ncc(-c3cn[nH]c3)nc2c1 [39-09D],TNFα induced NFκB transcription activity % Inhibition,[1],48.4 ± 2.8%
Cn1cc(-c2cnc3ccc(NC(=O)Nc4ccc(F)cc4)cc3n2)cn1 [39-066],TNFα induced NFκB transcription activity % Inhibition,[1],42.9 ± 9.8%
Cn1cc(-c2cnc3ccc(NC(=O)Nc4ccccc4)cc3n2)cn1 [39-071],TNFα induced NFκB transcription activity % Inhibition,[1],31.2 ± 7.6%
Cn1cc(-c2cnc3ccc(NC(=O)Nc4ccc(F)c(Br)c4)cc3n2)cn1 [39-100],TNFα induced NFκB transcription activity % Inhibition,[1],83.8 ± 1.6%
same,potency relative to 13-197,[1]; all the assays tested (FIG. 1 and FIG. 2),more potent than 13-197
same,GI50,[2],3.8 ± 1.2 µM
same,colon tumor growth,[3],reduced colon tumorgrowth
same,MRT inf,"[4]; Balb/c, mouse, plasma, IV: 1 mg/kg",1.4 h
same,half-life,"[4]; Balb/c, mouse, plasma, IV: 1 mg/kg, read-out: t0.5 (elimination half-life) (converted)",3.9 h
same,AUC(0-t),[4]; [13],12400 ng·h/mL
same,CL/F,[4]; [13],13.3 mL/min/kg
same,Cmax,[4]; [13],2330 ng/mL
same,Tmax,[4]; [13],2 h
same,bioavailability,"[4]; Balb/c, mouse, plasma, Oral: 10 mg/kg vs IV: 1 mg/kg",208%
same,MRT inf,[4]; [13],3.9 h
same,AUC(0-inf),"[4]; Balb/c, mouse, plasma, intravenous dose 1 mg/kg, read-out: area under the curve (AUC0-∞)",598 ng·h/mL
same,MRT,"[4]; Balb/c, mouse, plasma, intravenous dose 1 mg/kg, read-out: mean residence time (MRT)",1.4 h
same,AUC(0-inf),"[4]; Balb/c, mouse, plasma, oral administration 10 mg/kg, read-out: AUC0-∞",12400 ng·h/mL
same,MRT,"[4]; Balb/c, mouse, plasma, oral administration 10 mg/kg, read-out: MRT",3.9 h
same,C0-iv,[4]; IV: 1 mg/kg,709.9 ng/mL
same,CL/F (clearance),[4]; IV: 1 mg/kg,27.8 mL/min/kg
same,λZ,[4]; IV: 1 mg/kg,0.177 h⁻¹
same,t0.5,[4]; Oral: 10 mg/kg,2.35 h
same,λZ,[4]; Oral: 10 mg/kg,0.295 h⁻¹
same,GI50,[5],4.5 ± 0.4 µM
same,GI50,[6],4.1 ± 0.5 µM
same,GI50,[7],3.2 ± 0.3 µM
same,parent compound present,"[8]; human liver S9 fraction, 60-minute incubation",More than 85%
same,microsomal CLint,[8]; human liver S9 fraction,1.59 µL/min/mg
same,half-life,[8],7.273 h
same,metabolites detected,"[8]; metabolite identification by LC-MS/MS, matrix not stated","In very small fraction glucuronidation, sulfonation, and demethylation"
same,GI50,[9],7.2 ± 2.6 µM
same,GI50,[10],8.4 ± 2.3 µM
same,GI50,[11],8.4 ± 2.3 µM
same,GI50,[12],3.1 ± 0.2 µM
Cn1cc(-c2cnc3ccc(NC(=O)Cc4ccc(Br)cc4)cc3n2)cn1 [39-076],TNFα induced NFκB transcription activity % Inhibition,[1],36.1 ± 8.8%
"O=C(Nc1ccc(Br)cc1)Nc1ccc2nc(-c3ccco3)c(-c3ccco3)nc2c1 [13-197, reference compound]",TNFα induced NFκB transcription activity % Inhibition,[1],32.9 ± 3.4%
same,GI50,[2],8.8 ± 2.2 µM
same,GI50,[5],10.7 ± 0.5 µM
same,GI50,[6],9.1 ± 1.1 µM
same,GI50,[7],10 ± 2.2 µM
same,microsomal CLint,[8]; human liver S9 fraction,12.2 µL/min/mg
same,half-life,[8],0.95 h
same,GI50,[9],12 ± 4 µM
same,GI50,[10],9.2 ± 2.5 µM
same,GI50,[11],10.9 ± 2.1 µM
same,GI50,[12],6.7 ± 1 µM
